Values of other authors in US20250275937A1, “Methods For Reducing Negative Effects Of Alcohol Consumption” (Honed Life Sciences, LLC, priority 2018, published 2025).

Assays:
[1] = tested on: acute alcohol (EtOH) intoxication; conditions: rats
[2] = tested on: oxidative stress and liver fibrogenesis; conditions: mice

Action on acute EtOH-induced potentiation of GABA receptors (GABA receptors)	Compound	Counteracting acute alcohol (EtOH) intoxication and withdrawal signs (tolerance, increased anxiety, seizure susceptibility) [1]	Effect on oxidative stress and liver fibrogenesis [2]
antagonizing	O=C1c2c(O)cc(O)cc2O[C@H](c2cc(O)c(O)c(O)c2)[C@H]1O [DHM, dihydromyricetin]	highly effective	
	O=C(O)c1cc(C(=O)O)c2c(n1)C(=O)C(=O)c1cc(C(=O)O)[nH]c1-2 [PQQ, pyrroloquinoline quinone]		suppresses oxidative stress and liver fibrogenesis
